PubChem BioAssay AID1963841 (Molecular Pharmacology Branch, DTP, NCI, 2024)
pIC50: −log10 of the molar value.

Tested on: 439559-082-T-J2-PDC spheroid viability
Experiment: Anticancer human tumor 439559-082-T-J2-PDC patient-derived colon adenocarcinoma cell line growth inhibition [POLQ]
Details: spheroids with HUVEC and MSC; for pIC50: curve of first compound; for viability, T/C: stronger effect = lower value
How it was run: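 Growth inhibition in 3D: complex spheroids (tumor PDC, HUVEC, MSC) treated with POLQ inhibitor combinations; where Cmax unknown, highest tested concentration 10 microM, except SN-38 at 1 microM.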

[1] = second compound 0.0316 µM, first compound 0.0316 µM
[2] = second compound 0.0316 µM, first compound 0.1 µM
[3] = second compound 0.0316 µM, first compound 0.316 µM
[4] = second compound 0.0316 µM, first compound 1 µM
[5] = second compound 0.0316 µM, first compound 3.16 µM
[6] = second compound 0.0316 µM, first compound 10 µM
[7] = second compound 0.1 µM, first compound 0.0316 µM
[8] = second compound 0.1 µM, first compound 0.1 µM
[9] = second compound 0.1 µM, first compound 0.316 µM
[10] = second compound 0.1 µM, first compound 1 µM
[11] = second compound 0.1 µM, first compound 3.16 µM
[12] = second compound 0.1 µM, first compound 10 µM
[13] = second compound 0.316 µM, first compound 0.0316 µM
[14] = second compound 0.316 µM, first compound 0.1 µM
[15] = second compound 0.316 µM, first compound 0.316 µM
[16] = second compound 0.316 µM, first compound 1 µM
[17] = second compound 0.316 µM, first compound 3.16 µM
[18] = second compound 0.316 µM, first compound 10 µM
[19] = second compound 1 µM, first compound 0.0316 µM
[20] = second compound 1 µM, first compound 0.1 µM
[21] = second compound 1 µM, first compound 0.316 µM
[22] = second compound 1 µM, first compound 1 µM
[23] = second compound 1 µM, first compound 3.16 µM
[24] = second compound 1 µM, first compound 10 µM
[25] = second compound 3.16 µM, first compound 0.0316 µM
[26] = second compound 3.16 µM, first compound 0.1 µM
[27] = second compound 3.16 µM, first compound 0.316 µM
[28] = second compound 3.16 µM, first compound 1 µM
[29] = second compound 3.16 µM, first compound 3.16 µM
[30] = second compound 3.16 µM, first compound 10 µM
[31] = second compound 10 µM, first compound 0.0316 µM
[32] = second compound 10 µM, first compound 0.1 µM
[33] = second compound 10 µM, first compound 0.316 µM
[34] = second compound 10 µM, first compound 1 µM
[35] = second compound 10 µM, first compound 3.16 µM
[36] = second compound 10 µM, first compound 10 µM
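Further: spheroids exposed to compounds for seven days before readout.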
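Wherever viability, T/C is given: 100% = DMSO vehicle control viability.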

Nc1ccn(C2OC(CO)C(O)C2(F)F)c(=O)n1 (stereo unspecified) + Nc1ccc(C#CCN(C(=O)Cc2ncc(C(F)(F)F)cc2C(F)(F)F)c2ccc(F)cc2)nn1
pIC50 (second compound 0.0316 µM): 6.41
pIC50 (second compound 0.1 µM): 6.23
pIC50 (second compound 0.316 µM): 6.33
pIC50 (second compound 1 µM): 6.28
pIC50 (second compound 3.16 µM): 6.21
pIC50 (second compound 10 µM): 5.72
viability, T/C [1]: 81.7%
viability, T/C [2]: 88.2%
viability, T/C [3]: 54.1%
viability, T/C [4]: 35.6%
viability, T/C [5]: 32.7%
viability, T/C [6]: 28.2%
viability, T/C [7]: 89.5%
viability, T/C [8]: 90.7%
viability, T/C [9]: 63%
viability, T/C [10]: 38.9%
viability, T/C [11]: 33.9%
viability, T/C [12]: 28.8%
viability, T/C [13]: 91.1%
viability, T/C [14]: 90.2%
viability, T/C [15]: 57.4%
viability, T/C [16]: 35.5%
viability, T/C [17]: 33.2%
viability, T/C [18]: 26.1%
viability, T/C [19]: 86.4%
viability, T/C [20]: 85.6%
viability, T/C [21]: 59.1%
viability, T/C [22]: 37.9%
viability, T/C [23]: 32.7%
viability, T/C [24]: 28.8%
viability, T/C [25]: 86.3%
viability, T/C [26]: 79.3%
viability, T/C [27]: 62.9%
viability, T/C [28]: 39.1%
viability, T/C [29]: 36.1%
viability, T/C [30]: 27.1%
viability, T/C [31]: 90.1%
viability, T/C [32]: 80%
viability, T/C [33]: 81.9%
viability, T/C [34]: 63.4%
viability, T/C [35]: 39.3%
viability, T/C [36]: 35.9%

CCc1cc2c(N3CCc4c(cc(Cn5ccnc5)cc4-c4cn(C)nc4C(F)(F)F)C3=O)cc(C)nc2c(OC)n1 + Cc1cccc(N(C)C(=O)C2C(O)CCN2c2nc(C)cc(C(F)(F)F)c2C#N)c1
pIC50 (second compound 0.0316 µM): < 5.00
pIC50 (second compound 0.1 µM): < 5.00
pIC50 (second compound 0.316 µM): < 5.00
pIC50 (second compound 1 µM): < 5.00
pIC50 (second compound 3.16 µM): < 5.00
pIC50 (second compound 10 µM): < 5.00
viability, T/C [1]: 105%
viability, T/C [2]: 101%
viability, T/C [3]: 101%
viability, T/C [4]: 98.3%
viability, T/C [5]: 95.1%
viability, T/C [6]: 97.3%
viability, T/C [7]: 101%
viability, T/C [8]: 96.9%
viability, T/C [9]: 90.2%
viability, T/C [10]: 77.2%
viability, T/C [11]: 111%
viability, T/C [12]: 105%
viability, T/C [13]: 94.7%
viability, T/C [14]: 95.3%
viability, T/C [15]: 105%
viability, T/C [16]: 81%
viability, T/C [17]: 90.6%
viability, T/C [18]: 89.8%
viability, T/C [19]: 96.6%
viability, T/C [20]: 104%
viability, T/C [21]: 95.8%
viability, T/C [22]: 95.7%
viability, T/C [23]: 99.6%
viability, T/C [24]: 94.9%
viability, T/C [25]: 111%
viability, T/C [26]: 93.6%
viability, T/C [27]: 87.6%
viability, T/C [28]: 92.2%
viability, T/C [29]: 107%
viability, T/C [30]: 94%
viability, T/C [31]: 94.8%
viability, T/C [32]: 111%
viability, T/C [33]: 80.7%
viability, T/C [34]: 91.5%
viability, T/C [35]: 98.1%
viability, T/C [36]: 86%

Cn1ncnc1[C@H]1c2n[nH]c(=O)c3cc(F)cc(c23)N[C@@H]1c1ccc(F)cc1 + Nc1ccc(C#CCN(C(=O)Cc2ncc(C(F)(F)F)cc2C(F)(F)F)c2ccc(F)cc2)nn1
pIC50 (second compound 0.0316 µM): < 7.00
pIC50 (second compound 0.1 µM): < 7.00
pIC50 (second compound 0.316 µM): < 7.00
pIC50 (second compound 1 µM): < 7.00
pIC50 (second compound 3.16 µM): < 7.00
pIC50 (second compound 10 µM): < 7.00
viability, T/C (second compound 0.0316 µM, first compound 0.000316 µM): 91.8%
viability, T/C (second compound 0.0316 µM, first compound 0.001 µM): 104%
viability, T/C (second compound 0.0316 µM, first compound 0.00316 µM): 89.9%
viability, T/C (second compound 0.0316 µM, first compound 0.01 µM): 103%
viability, T/C [1]: 101%
viability, T/C [2]: 91.7%
viability, T/C (second compound 0.1 µM, first compound 0.000316 µM): 103%
viability, T/C (second compound 0.1 µM, first compound 0.001 µM): 88.9%
viability, T/C (second compound 0.1 µM, first compound 0.00316 µM): 86.6%
viability, T/C (second compound 0.1 µM, first compound 0.01 µM): 93.2%
viability, T/C [7]: 93.1%
viability, T/C [8]: 89.1%
viability, T/C (second compound 0.316 µM, first compound 0.000316 µM): 99.4%
viability, T/C (second compound 0.316 µM, first compound 0.001 µM): 112%
viability, T/C (second compound 0.316 µM, first compound 0.00316 µM): 90.2%
viability, T/C (second compound 0.316 µM, first compound 0.01 µM): 94.6%
viability, T/C [13]: 99.1%
viability, T/C [14]: 90%
viability, T/C (second compound 1 µM, first compound 0.000316 µM): 111%
viability, T/C (second compound 1 µM, first compound 0.001 µM): 105%
viability, T/C (second compound 1 µM, first compound 0.00316 µM): 104%
viability, T/C (second compound 1 µM, first compound 0.01 µM): 102%
viability, T/C [19]: 94.3%
viability, T/C [20]: 102%
viability, T/C (second compound 3.16 µM, first compound 0.000316 µM): 85.2%
viability, T/C (second compound 3.16 µM, first compound 0.001 µM): 106%
viability, T/C (second compound 3.16 µM, first compound 0.00316 µM): 103%
viability, T/C (second compound 3.16 µM, first compound 0.01 µM): 96.2%
viability, T/C [25]: 99.4%
viability, T/C [26]: 94.2%
viability, T/C (second compound 10 µM, first compound 0.000316 µM): 93.1%
viability, T/C (second compound 10 µM, first compound 0.001 µM): 122%
viability, T/C (second compound 10 µM, first compound 0.00316 µM): 87.8%
viability, T/C (second compound 10 µM, first compound 0.01 µM): 85.4%
viability, T/C [31]: 101%
viability, T/C [32]: 112%
